Patent publication US10280167B2, “Purine derivatives for the treatment of viral infections” (JANSSEN SCIENCES IRELAND UC, priority 2011, dated 2019)

Columns and labels:
Format in all cases: cell-based
human TLR7 [1] = target: T1, human TLR7 (Homo sapiens (Human), UniProt Q9NYK1); experiment: Reporter assay for TLR7 activity, HEK293 transiently transfected with wild type TLR7 and NFκB-luc; details: lowest effective concentration; 48 h transfection
human TLR7 dIRR2 mutant [2] = experiment: Reporter assay for TLR7 activity, HEK293 transfected with mutant TLR7 (dIRR2 deletion) and NFκB-luc; details: lowest effective concentration; 24 h transfection
Method: (§1) Reporter Assays for Assessment of TLR7 Activity (24 h)
(§2) The ability of compounds to activate human TLR7 was assessed in a cellular reporter assay using HEK293 cells transiently transfected with a TLR7 or TLR8 expression vector and NFκB-luc reporter construct. In one instance the TLR expression construct expresses the respective wild type sequence or a mutant sequence comprising a deletion in the second leucine-rich repeat (dIRR2) of the TLR.
(§3) Briefly, HEK293 cells were grown in culture medium (DMEM supplemented with 10% FCS and 2 mM Glutamine). For transfection of cells in 10 cm dishes, cells were detached with Trypsin-EDTA, transfected with a mix of CMV-TLR7 or TLR8 plasmid (750 ng), NFκB-luc plasmid (375 ng) and a transfection reagent and incubated 24 hours or 48 hours respectively at 37° C. in a humidified 5% CO2 atmosphere. Transfected cells were then detached with Trypsin-EDTA, washed in PBS and resuspended in medium to a density of 1.67×10^5 cells/mL. Thirty microliters of cells were then dispensed into each well in 384-well plates, where 10 μL of compound in 4% DMSO was already present. Following 6 hours incubation at 37° C., 5% CO2, the luciferase activity was determined by adding 15 μl of Steady Lite Plus substrate (Perkin Elmer) to each well and readout performed on a ViewLux ultraHTS microplate imager (Perkin Elmer). Dose response curves were generated from measurements performed in quadruplicates. Lowest effective concentrations (LEC) values, defined as the concentration that induces an effect which is at least two fold above the standard deviation of the assay, were determined for each compound. Compound toxicity was determined in parallel using a similar dilution series of compound with 30 μL per well of cells transfected with the CMV-TLR7 construct alone (1.67×10^5 cells/mL), in 384-well plates. Cell viability was measured after 6 hours incubation at 37° C., 5% CO2 by adding 15 μL of ATP lite (Perkin Elmer) per well and reading on a ViewLux ultraHTS microplate imager (Perkin Elmer). Data was reported as CC50.

human TLR7 [3] = target: T1, human TLR7; experiment: Reporter assay for TLR7 activity, HEK293 transiently transfected with wild type TLR7 and NFκB-luc; details: lowest effective concentration; 24 h transfection
Method: as §1, §2, §3

[4] = test system: Huh-7 luc/neo HCV replicon cells with conditioned media from PBMC; experiment: Interferon production in human PBMC (PBMC-HUH7_EC50), HCV replicon readout with conditioned media; details: concentration applied to PBMCs giving 50% reduction of replicon luciferase activity
Method: Measurement of Interferon Production in Human PBMC (PBMC-HUH7_EC50)
Activation of human TLR7 results in robust production of interferon by plasmacytoid dendritic cells present in human blood. The potential of compounds to induce interferon was evaluated by looking at the antiviral activity in the HCV replicon system upon incubation with conditioned media from peripheral blood mononuclear cells (PBMC). The HCV replicon assay is based on a bicistronic expression construct, as described by Lohmann et al. (Science (1999) 285: 110-113; Journal of Virology (2003) 77: 3007-15 3019) with modifications described by Krieger et al. (Journal of Virology (2001) 75: 4614-4624). The assay utilized the stably transfected cell line Huh-7 luc/neo harboring an RNA encoding a bicistronic expression construct comprising the wild type NS3-NS5B regions of HCV type 1b translated from an Internal Ribosome Entry Site (IRES) from encephalomyocarditis virus (EMCV), preceded by a reporter gene (Firefly-luciferase) and a selectable marker gene (neoR, neomycine phosphotransferase). The construct is flanked by 5′ and 3′ NTRs (non-translated regions) from HCV type 1b. Continued culture of the replicon cells in the presence of G418 (neoR) is dependent on the replication of the HCV RNA. The stably transfected replicon cells that replicate HCV RNA autonomously and to high levels, encoding inter alia luciferase, were used for profiling of the conditioned cell culture media. Briefly, PBMCs were prepared from buffy coats of at least two donors using a standard Ficoll centrifugation protocol. Isolated PBMCs were resuspended in RPMI medium supplemented with 10% human AB serum and 2×10^5 cells/well were dispensed into 384-well plates containing compounds (70 μL total volume). After overnight incubation, […] was transferred to 384-well plates containing 2.2×10^3 replicon cells/well in 30 μL (plated the day before). Following 24 hours of incubation, replication was measured by assaying luciferase activity using 40 μL/well Steady Lite Plus substrate (Perkin Elmer) and measured with ViewLux ultraHTS microplate imager (Perkin Elmer). The inhibitory activity of each compound on the Huh7-luc/neo cells were reported as EC50 values, defined as the compound concentration applied to the PBMCs resulting in a 50% reduction of luciferase activity which in turn indicates the degree of replication of the replicon RNA on transfer of a defined amount of PBMC culture medium. Recombinant interferon α-2a (Roferon-A) was used as a standard control compound.

human TLR7 dIRR2 mutant [5] = experiment: Reporter assay for TLR7 activity, HEK293 transfected with mutant TLR7 (dIRR2 deletion) and NFκB-luc; details: lowest effective concentration; 48 h transfection
[6] = test system: HEK-ISRE-luc cells with conditioned media from PBMC; experiment: Interferon production in human PBMC (PBMC HEK-ISRE-luc LEC); details: lowest effective concentration; for minimal effective concentration: Homo sapiens, PBMC, read-out: PBMC HEK-ISRE-luc (LEC)
Method: Measurement of Interferon Production in Human PBMC (PBMC HEK-ISRE-Luc LEC)
Activation of human TLR7 results in robust production of interferon by plasmacytoid dendritic cells present in human blood. The potential of compounds to induce interferon was evaluated by determination of interferon in the conditioned media from peripheral blood mononuclear cells (PBMC). The presence of interferon in the samples was determined, using an interferon reporter cell line stably expressing an interferon-stimulated responsive elements (ISRE)-luc reporter construct. The ISRE element with sequence GAAACTGAAACT (SEQ ID NO: 1) is highly responsive to the STAT1-STAT2-IRF9 transcription factor, which becomes activated upon binding of IFN-I to the IFN receptor. Briefly, PBMCs were prepared from buffy coats of at least two donors using a standard Ficoll centrifugation protocol. Isolated PBMCs were resuspended in RPMI medium supplemented with 10% human AB serum and 2×10^5 cells/well were dispensed into 384-well plates containing compounds (70 μL total volume). After overnight incubation of the PBMCs with the compounds, 10 μL of supernatant was transferred to 384-well plates containing 5×10^3 HEK-ISRE-luc cells/well in 30 μL (plated the day before). Following 24 hours of incubation, activation of the ISRE elements was measured by assaying luciferase activity using 40 μL/well Steady Lite Plus substrate (Perkin Elmer) and measured with ViewLux ultraHTS microplate imager (Perkin Elmer). The stimulating activity of each compound on the HEK-ISRE-luc cells was reported as LEC. The LEC in turn indicates the degree of ISRE activation on transfer of a defined amount of PBMC culture medium.
Recombinant interferon alfa-2a (Roferon-A) was used as a standard control compound.

T1 sequence (Q9NYK1 27-1049): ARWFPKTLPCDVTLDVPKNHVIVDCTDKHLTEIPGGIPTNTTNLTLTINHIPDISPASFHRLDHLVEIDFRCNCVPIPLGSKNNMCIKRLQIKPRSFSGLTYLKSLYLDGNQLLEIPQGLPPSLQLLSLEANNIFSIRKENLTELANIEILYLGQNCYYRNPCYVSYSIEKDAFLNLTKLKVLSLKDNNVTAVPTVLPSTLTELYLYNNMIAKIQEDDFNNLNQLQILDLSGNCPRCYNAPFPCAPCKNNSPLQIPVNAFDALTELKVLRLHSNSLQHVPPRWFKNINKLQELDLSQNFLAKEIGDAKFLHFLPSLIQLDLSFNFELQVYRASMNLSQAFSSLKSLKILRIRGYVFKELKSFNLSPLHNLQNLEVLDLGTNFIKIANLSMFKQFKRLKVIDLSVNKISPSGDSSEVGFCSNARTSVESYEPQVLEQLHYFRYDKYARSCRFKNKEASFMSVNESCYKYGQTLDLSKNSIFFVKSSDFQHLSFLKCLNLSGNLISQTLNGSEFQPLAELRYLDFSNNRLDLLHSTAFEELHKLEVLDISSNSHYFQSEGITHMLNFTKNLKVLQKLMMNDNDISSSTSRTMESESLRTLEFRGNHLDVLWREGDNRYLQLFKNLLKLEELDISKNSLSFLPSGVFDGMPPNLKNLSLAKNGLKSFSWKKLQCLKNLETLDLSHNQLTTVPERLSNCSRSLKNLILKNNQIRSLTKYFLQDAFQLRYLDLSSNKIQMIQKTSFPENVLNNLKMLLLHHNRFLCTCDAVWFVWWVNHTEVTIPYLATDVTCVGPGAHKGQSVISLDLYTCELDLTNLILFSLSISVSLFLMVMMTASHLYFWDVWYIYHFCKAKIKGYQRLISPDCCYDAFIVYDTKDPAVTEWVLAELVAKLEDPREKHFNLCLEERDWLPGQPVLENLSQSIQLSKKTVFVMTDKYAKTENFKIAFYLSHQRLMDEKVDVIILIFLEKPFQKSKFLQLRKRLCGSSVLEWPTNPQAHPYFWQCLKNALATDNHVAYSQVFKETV

Row | SMILES | TLR7-wt_LEC 48 h (human TLR7 [1]) [µM] | TLR7-dIRR2_LEC 24 h (human TLR7 dIRR2 mutant [2]) [µM] | TLR7-wt_LEC 24 h (human TLR7 [3]) [µM] | EC50 ([4]; Homo sapiens, Huh-7) [nM] | TLR7-dIRR2_LEC 48 h (human TLR7 dIRR2 mutant [5]) [µM] | minimal effective concentration [6] [µM] | EC50 [4] [nM] | PBMC HEK-ISRE-luc (LEC) [6] [µM]
1 | Nc1nc(-c2cn[nH]c2)nc2c1[nH]c(=O)n2Cc1ccccc1 [Compound 19] | >25 | 13.31 | >24.59 | 12400 | 16.6 |  |  | 
2 | Nc1nc(-c2ccco2)nc2c1[nH]c(=O)n2Cc1ccccc1 [Compound 20] | 6.34 | 0.5 |  | 680 | 0.5 |  |  | 
3 | Nc1nc(-n2cccn2)nc2c1[nH]c(=O)n2Cc1ccccc1 [Compound 36] | 0.22 |  |  | 47 | 0.017 | 0.033 |  | 
4 | CN(C)CCOc1ccc(Cn2c(=O)[nH]c3c(N)nc(-c4nc(C5CC5)c[nH]4)nc32)cn1 [Compound 54] | 16.1 |  |  | 50 | 5.65 | 0.07 |  | 
5 | COC(=O)COc1ccc(Cn2c(=O)[nH]c3c(N)nc(-c4ncc[nH]4)nc32)cn1 [Compound 57] | 0.44 |  |  | 1210 | 0.06 | 1.38 |  | 
6 | Nc1nc(-c2ncc[nH]2)nc2c1[nH]c(=O)n2Cc1ccc(OCC(=O)O)nc1 [Compound 58] | 0.99 |  |  | 2750 | 0.06 | 2.69 |  | 
7 | Nc1nc(-c2nc(C3CC3)c[nH]2)nc2c1[nH]c(=O)n2Cc1ccc2c(c1)CNCC2 [Compound 60] | >25 |  |  | 34 | 1.25 | 0.019 |  | 
8 | CN1CCN(CCCCCn2c(=O)[nH]c3c(N)nc(-c4ncc[nH]4)nc32)CC1 [Compound 61] | >25 |  |  |  | 9.73 |  | 1340 | 0.95
9 | Nc1nc(-c2nc(C3CC3)c[nH]2)nc2c1[nH]c(=O)n2CCCCCCN1CCCC1 [Compound 62] | 21.2 |  |  | 700 | >25 | 0.72 |  | 
10 | Nc1nc(-c2ncc[nH]2)nc2c1[nH]c(=O)n2CC1CCOCC1 [Compound 63] | >25 |  |  | 6720 | 2.58 | 4.39 |  | 
